In PubChem BioAssay (NCI):
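Method: 48-hour compound exposure of cells in 96-well plates, five concentrations, linear interpolation of endpoints. GI50 = concentration required for 50% inhibition of growth. TGI denotes the concentration required for complete inhibition of growth.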

Legend:
Experiment in all cases: DTP human tumour cell line panel, 48 h
CCRF-CEM leukemia = test system: CCRF-CEM leukemia
T-47D breast = test system: T-47D breast
ACHN renal = test system: ACHN renal
HOP-92 NSCLC = test system: HOP-92 NSCLC
SW-620 colon = test system: SW-620 colon
SF-539 CNS = test system: SF-539 CNS
MCF7 breast = test system: MCF7 breast
NCI-H23 lung = test system: NCI-H23 lung
EKVX NSCLC = test system: EKVX NSCLC
UACC-257 melanoma = test system: UACC-257 melanoma
MOLT-4 leukemia = test system: MOLT-4 leukemia
NCI/ADR-RES ovarian = test system: NCI/ADR-RES ovarian
SF-268 CNS = test system: SF-268 CNS
PC-3 prostate = test system: PC-3 prostate
MDA-MB-231 breast = test system: MDA-MB-231 breast
BT-549 breast = test system: BT-549 breast
HOP-62 NSCLC = test system: HOP-62 NSCLC
MDA-MB-468 breast = test system: MDA-MB-468 breast
K-562 leukemia = test system: K-562 leukemia
U251 CNS = test system: U251 CNS
A498 renal = test system: A498 renal
NCI-H460 lung = test system: NCI-H460 lung
OVCAR-5 ovarian = test system: OVCAR-5 ovarian
SK-OV-3 ovarian = test system: SK-OV-3 ovarian
A549 NSCLC = test system: A549 NSCLC
IGROV1 ovarian = test system: IGROV1 ovarian
OVCAR-3 ovarian = test system: OVCAR-3 ovarian
DU-145 prostate = test system: DU-145 prostate
SNB-75 CNS = test system: SNB-75 CNS
UO-31 renal = test system: UO-31 renal
786-0 renal = test system: 786-0 renal
OVCAR-4 ovarian = test system: OVCAR-4 ovarian
MALME-3M melanoma = test system: MALME-3M melanoma
NCI-H522 lung = test system: NCI-H522 lung
HCT-15 colon = test system: HCT-15 colon
TK-10 renal = test system: TK-10 renal
UACC-62 melanoma = test system: UACC-62 melanoma
SK-MEL-28 melanoma = test system: SK-MEL-28 melanoma
LOX IMVI melanoma = test system: LOX IMVI melanoma
CAKI-1 renal = test system: CAKI-1 renal
KM12 colon = test system: KM12 colon
SN12C renal = test system: SN12C renal
RPMI-8226 leukemia = test system: RPMI-8226 leukemia
HCC-2998 colon = test system: HCC-2998 colon
HS 578T breast = test system: HS 578T breast
RXF 393 renal = test system: RXF 393 renal
COLO 205 colon = test system: COLO 205 colon
HL-60(TB) leukemia = test system: HL-60(TB) leukemia
HT29 colon = test system: HT29 colon
SF-295 CNS = test system: SF-295 CNS
OVCAR-8 ovarian = test system: OVCAR-8 ovarian
MDA-MB-435 = test system: MDA-MB-435
SR leukemia = test system: SR leukemia
NCI-H226 lung = test system: NCI-H226 lung
SNB-19 CNS = test system: SNB-19 CNS
HCT-116 colon = test system: HCT-116 colon
SK-MEL-2 melanoma = test system: SK-MEL-2 melanoma
SK-MEL-5 melanoma = test system: SK-MEL-5 melanoma
M14 melanoma = test system: M14 melanoma

For CC1(c2ccccc2)NC(=O)N(CC(=O)Nc2ccc(C(=O)/C=C/c3ccccc3)cc2)C1=O (stereo not drawn), the GI50 (CCRF-CEM leukemia) was 5.76 µM, the TGI (CCRF-CEM leukemia) was 41.3 µM and the GI50 (T-47D breast) was 3.17 µM. For the same compound, the TGI (T-47D breast) was 29.2 µM, the GI50 (ACHN renal) was 13.2 µM and the TGI (ACHN renal) was 31 µM. The GI50 (HOP-92 NSCLC) was 9.31 µM, the TGI (HOP-92 NSCLC) was 69.2 µM and the GI50 (SW-620 colon) was 15.1 µM. It also gave a TGI (SW-620 colon) of 34.9 µM, a GI50 (SF-539 CNS) of 12.9 µM and a TGI (SF-539 CNS) of 25.9 µM. It also gave a GI50 (MCF7 breast) of 3.15 µM, a TGI (MCF7 breast) of 14 µM and a GI50 (NCI-H23 lung) of 13.9 µM. It also gave a TGI (NCI-H23 lung) of 28.9 µM, a GI50 (EKVX NSCLC) of 7.62 µM and a TGI (EKVX NSCLC) of 33 µM. The GI50 (UACC-257 melanoma) was 13.1 µM, the TGI (UACC-257 melanoma) was 27.4 µM and the GI50 (MOLT-4 leukemia) was 7.1 µM. For the same compound, the TGI (MOLT-4 leukemia) was 57.1 µM, the GI50 (NCI/ADR-RES ovarian) was 21.8 µM and the TGI (NCI/ADR-RES ovarian) was 82.3 µM. For the same compound, the GI50 (SF-268 CNS) was 12.4 µM, the TGI (SF-268 CNS) was 48.6 µM and the GI50 (PC-3 prostate) was 7.74 µM. The TGI (PC-3 prostate) was 51.9 µM, the GI50 (MDA-MB-231 breast) was 11.7 µM and the TGI (MDA-MB-231 breast) was 30.9 µM. The GI50 (BT-549 breast) was 8.21 µM, the TGI (BT-549 breast) was 21.6 µM and the GI50 (HOP-62 NSCLC) was 18.2 µM. It also gave a TGI (HOP-62 NSCLC) of 53.5 µM, a GI50 (MDA-MB-468 breast) of 5.7 µM and a TGI (MDA-MB-468 breast) of 20.6 µM. It also gave a GI50 (K-562 leukemia) of 4.03 µM, a TGI (K-562 leukemia) greater than 100 µM and a GI50 (U251 CNS) of 6.17 µM. For the same compound, the TGI (U251 CNS) was 21.3 µM, the GI50 (A498 renal) was 14.2 µM and the TGI (A498 renal) was 28.7 µM. It also gave a GI50 (NCI-H460 lung) of 15.5 µM, a TGI (NCI-H460 lung) of 41 µM and a GI50 (OVCAR-5 ovarian) of 16.5 µM. For the same compound, the TGI (OVCAR-5 ovarian) was 36.6 µM, the GI50 (SK-OV-3 ovarian) was 17.9 µM and the TGI (SK-OV-3 ovarian) was 52.2 µM. For the same compound, the GI50 (A549 NSCLC) was 10.8 µM, the TGI (A549 NSCLC) was 27.7 µM and the GI50 (IGROV1 ovarian) was 12.9 µM. The TGI (IGROV1 ovarian) was 27.7 µM, the GI50 (OVCAR-3 ovarian) was 11.8 µM and the TGI (OVCAR-3 ovarian) was 26.8 µM. For the same compound, the GI50 (DU-145 prostate) was 13.7 µM, the TGI (DU-145 prostate) was 28.9 µM and the GI50 (SNB-75 CNS) was 3 µM. For the same compound, the TGI (SNB-75 CNS) was 41.7 µM, the GI50 (UO-31 renal) was 10.3 µM and the TGI (UO-31 renal) was 23.9 µM. For the same compound, the GI50 (786-0 renal) was 13.7 µM, the TGI (786-0 renal) was 27.4 µM and the GI50 (OVCAR-4 ovarian) was 13.3 µM. It also gave a TGI (OVCAR-4 ovarian) of 96.3 µM, a GI50 (MALME-3M melanoma) of 15 µM and a TGI (MALME-3M melanoma) of 38.9 µM. It also gave a GI50 (NCI-H522 lung) of 11.1 µM, a TGI (NCI-H522 lung) of 27.4 µM and a GI50 (HCT-15 colon) of 14.2 µM. It also gave a TGI (HCT-15 colon) of 35.3 µM, a GI50 (TK-10 renal) of 17.8 µM and a TGI (TK-10 renal) of 68.2 µM. The GI50 (UACC-62 melanoma) was 6.52 µM, the TGI (UACC-62 melanoma) was 23 µM and the GI50 (SK-MEL-28 melanoma) was 14.3 µM. The TGI (SK-MEL-28 melanoma) was 29.1 µM, the GI50 (LOX IMVI melanoma) was 7.56 µM and the TGI (LOX IMVI melanoma) was 20.8 µM. The GI50 (CAKI-1 renal) was 11.5 µM, the TGI (CAKI-1 renal) was 29.6 µM and the GI50 (KM12 colon) was 4.94 µM. It also gave a TGI (KM12 colon) of 26.8 µM, a GI50 (SN12C renal) of 11.5 µM and a TGI (SN12C renal) of 35 µM. The GI50 (RPMI-8226 leukemia) was 2.27 µM, the TGI (RPMI-8226 leukemia) was 6.85 µM and the GI50 (HCC-2998 colon) was 4.25 µM. For the same compound, the TGI (HCC-2998 colon) was 14.3 µM, the GI50 (HS 578T breast) was 20.5 µM and the TGI (HS 578T breast) was greater than 100 µM. For the same compound, the GI50 (RXF 393 renal) was 5.81 µM, the TGI (RXF 393 renal) was 21.6 µM and the GI50 (COLO 205 colon) was 14.2 µM. It also gave a TGI (COLO 205 colon) of 29.6 µM, a GI50 (HL-60(TB) leukemia) of 12.3 µM and a TGI (HL-60(TB) leukemia) of 68.3 µM. It also gave a GI50 (HT29 colon) of 7.82 µM, a TGI (HT29 colon) of 24.6 µM and a GI50 (SF-295 CNS) of 11.9 µM. It also gave a TGI (SF-295 CNS) of 26.3 µM, a GI50 (OVCAR-8 ovarian) of 16.8 µM and a TGI (OVCAR-8 ovarian) of 64.3 µM. The GI50 (MDA-MB-435) was 3.11 µM, the TGI (MDA-MB-435) was 13.5 µM and the GI50 (SR leukemia) was 3.1 µM. For the same compound, the TGI (SR leukemia) was greater than 100 µM, the GI50 (NCI-H226 lung) was 15.8 µM and the TGI (NCI-H226 lung) was 78.1 µM. It also gave a GI50 (SNB-19 CNS) of 14 µM, a TGI (SNB-19 CNS) of 35.6 µM and a GI50 (HCT-116 colon) of 1.63 µM. The TGI (HCT-116 colon) was 3.35 µM, the GI50 (SK-MEL-2 melanoma) was 12.8 µM and the TGI (SK-MEL-2 melanoma) was 33.9 µM. The GI50 (SK-MEL-5 melanoma) was 7.59 µM, the TGI (SK-MEL-5 melanoma) was 20.4 µM and the GI50 (M14 melanoma) was 9.54 µM. The TGI (M14 melanoma) was 22.7 µM.
